Results: patent US20040086901A1, “Database for analyzing gene function and method of analyzing gene function by dspa” (priority 2000, published 2004)

Columns and labels:
Assay type in all cases: cell-based, mouse
[1] = test system: NIH3T3 cells, TPA (PKC downreg); experiment: MTT cell viability, TPA (PKC downreg) cells vs parental line; conditions: 3 to 4 days
[2] = test system: NIH3T3 cells overexpressing Ki-ras; experiment: MTT cell viability, Ki-ras overexpressing cells vs parental line; conditions: Ki-ras high-expressing cells / parental cell line, 3 to 4 days
In short: (§1)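 Stable NIH3T3 transfectants (cDNA in pRc-CMV-type vector, G-418-selected, high expressers picked by Western blot) and parental cells were seeded at 1×10^5 cells/ml into twofold serial drug dilutions and grown 3–4 days. MTT formazan was read at 574/655 nm, and log ratios of IC40 values were derived.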

[3] = test system: NIH3T3 cells overexpressing JNK-DN; experiment: MTT cell viability, JNK-DN overexpressing cells vs parental line; conditions: JNK-DN high-expressing cells / parental cell line, 3 to 4 days
In short: as §1

[4] = test system: NIH3T3 cells overexpressing Bax; experiment: MTT cell viability, Bax overexpressing cells vs parental line; conditions: 3 to 4 days
In short: (§2)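 Sensitivity is expressed as the logarithm of the ratio of IC40 values between gene-overexpressing and parental NIH3T3 cells. IC40 comes from an MTT assay after 3–4 days of drug exposure, with absorbance read at 574 nm against 655 nm. Untreated wells served as 100% and cell-free wells as 0% controls.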

[5] = test system: NIH3T3 cells overexpressing HNF4; experiment: MTT cell viability, HNF4 overexpressing cells vs parental line; conditions: HNF4 high-expressing cells / parental cell line, 3 to 4 days
In short: as §2

[6] = test system: NIH3T3 cells overexpressing PKCepsilon-KN; experiment: MTT cell viability, PKCepsilon-KN overexpressing cells vs parental line; conditions: 3 to 4 days
In short: as §2

[7] = test system: NIH3T3 cells overexpressing calpastatin; experiment: MTT cell viability, calpastatin overexpressing cells vs parental line; conditions: calpastatin high-expressing cells / parental cell line, 3 to 4 days
In short: as §1

[8] = test system: NIH3T3 cells overexpressing STAT1; experiment: MTT cell viability, STAT1 overexpressing cells vs parental line; conditions: STAT1 high-expressing cells / parental cell line, 3 to 4 days
In short: as §2

[9] = test system: NIH3T3 cells overexpressing CBP8; experiment: MTT cell viability, CBP8 overexpressing cells vs parental line; conditions: CBP8 high-expressing cells / parental cell line, 3 to 4 days
In short: as §1

[10] = test system: NIH3T3 cells overexpressing N-ras; experiment: MTT cell viability, N-ras overexpressing cells vs parental line; conditions: N-ras high-expressing cells / parental cell line, 3 to 4 days
In short: as §1

[11] = test system: NIH3T3 cells overexpressing Gluco-corticoid-R; experiment: MTT cell viability, Gluco-corticoid-R overexpressing cells vs parental line; conditions: Gluco-corticoid-R high-expressing cells / parental cell line, 3 to 4 days
In short: as §2

[12] = test system: NIH3T3 cells overexpressing ERK-DN; experiment: MTT cell viability, ERK-DN overexpressing cells vs parental line; conditions: ERK-DN high-expressing cells / parental cell line, 3 to 4 days
In short: as §2

[13] = test system: NIH3T3 cells overexpressing PDGF-R; experiment: MTT cell viability, PDGF-R overexpressing cells vs parental line; conditions: PDGF-R high-expressing cells / parental cell line, 3 to 4 days
In short: as §1

[14] = test system: NIH3T3 cells overexpressing cAMP-PK-CS; experiment: MTT cell viability, cAMP-PK-CS overexpressing cells vs parental line; conditions: cAMP-PK-CS high-expressing cells / parental cell line, 3 to 4 days
In short: as §2

[15] = test system: NIH3T3 cells overexpressing HSP4O; experiment: MTT cell viability, HSP4O overexpressing cells vs parental line; conditions: HSP4O high-expressing cells / parental cell line, 3 to 4 days
In short: as §1

[16] = test system: NIH3T3 cells overexpressing p16/INK4A; experiment: MTT cell viability, p16/INK4A overexpressing cells vs parental line; conditions: p16/INK4A high-expressing cells / parental cell line, 3 to 4 days
In short: as §1

[17] = test system: NIH3T3 cells overexpressing CaMKIIa-Active; experiment: MTT cell viability, CaMKIIa-Active overexpressing cells vs parental line; conditions: CaMKIIa-Active high-expressing cells / parental cell line, 3 to 4 days
In short: as §1

[18] = test system: NIH3T3 cells overexpressing m-calpain; experiment: MTT cell viability, m-calpain overexpressing cells vs parental line; conditions: m-calpain high-expressing cells / parental cell line, 3 to 4 days
In short: as §2

[19] = test system: NIH3T3 cells overexpressing PDGF-R-Del; experiment: MTT cell viability, PDGF-R-Del overexpressing cells vs parental line; conditions: PDGF-R-Del high-expressing cells / parental cell line, 3 to 4 days
In short: as §1

[20] = Bax (first of two Bax lines) high-expressing cells / parental cell line
[21] = Bax (second of two Bax lines) high-expressing cells / parental cell line
[22] = PKCepsilon-KN (first of two lines) high-expressing cells / parental cell line
[23] = PKCepsilon-KN (second of two lines) high-expressing cells / parental cell line

C[C@@H]1O[C@@H](O[C@H]2C[C@@H](O)[C@]3(CO)[C@H]4[C@H](O)C[C@]5(C)[C@@H](C6=CC(=O)OC6)CC[C@]5(O)[C@@H]4CC[C@]3(O)C2)[C@H](O)[C@H](O)[C@H]1O [Ouabain, ouabain]
logarithmic value of ratio of IC40 values [1]: −0.08
logarithmic value of ratio of IC40 values [2]: 0.18
logarithmic value of ratio of IC40 values [3]: −0.08
logarithmic value of ratio of IC40 values [4, 20]: 0.40
logarithmic value of ratio of IC40 values [4, 21]: 0.00
logarithmic value of ratio of IC40 values [5]: −0.08
logarithmic value of ratio of IC40 values [6, 22]: −0.15
logarithmic value of ratio of IC40 values [6, 23]: −0.12
logarithmic value of ratio of IC40 values [7]: −0.3
logarithmic value of ratio of IC40 values [8]: 0.04
logarithmic value of ratio of IC40 values [9]: 0.58
logarithmic value of ratio of IC40 values [10]: 0.56
logarithmic value of ratio of IC40 values [11]: 0.04
logarithmic value of ratio of IC40 values [12]: 0.48
logarithmic value of ratio of IC40 values [13]: 0.34
logarithmic value of ratio of IC40 values [14]: 0.00
logarithmic value of ratio of IC40 values [15]: 0.00
logarithmic value of ratio of IC40 values [16]: 0.63
logarithmic value of ratio of IC40 values [17]: 0.60
logarithmic value of ratio of IC40 values [18]: 0.05
logarithmic value of ratio of IC40 values [19]: 0.19

C/C=C(/C)C(=O)O[C@H]1C(C)=C2[C@H]([C@@H]1OC(=O)CCCCCCC)[C@@](C)(OC(C)=O)C[C@H](OC(=O)CCC)[C@@]1(O)[C@H]2OC(=O)[C@@]1(C)O [Thapsigargin, thapsigargin]
logarithmic value of ratio of IC40 values [1]: −0.23
logarithmic value of ratio of IC40 values [2]: −0.05
logarithmic value of ratio of IC40 values [3]: 0.24
logarithmic value of ratio of IC40 values [4, 20]: −0.21
logarithmic value of ratio of IC40 values [4, 21]: 0.20
logarithmic value of ratio of IC40 values [5]: 0.00
logarithmic value of ratio of IC40 values [6, 22]: 0.09
logarithmic value of ratio of IC40 values [6, 23]: 0.20
logarithmic value of ratio of IC40 values [7]: 0.046
logarithmic value of ratio of IC40 values [8]: 0.30
logarithmic value of ratio of IC40 values [9]: 0.12
logarithmic value of ratio of IC40 values [10]: 0.08
logarithmic value of ratio of IC40 values [11]: 0.20
logarithmic value of ratio of IC40 values [12]: −0.15
logarithmic value of ratio of IC40 values [13]: 0.29
logarithmic value of ratio of IC40 values [14]: 0.05
logarithmic value of ratio of IC40 values [15]: 0.18
logarithmic value of ratio of IC40 values [16]: −0.64
logarithmic value of ratio of IC40 values [17]: 0.03
logarithmic value of ratio of IC40 values [18]: 0.05
logarithmic value of ratio of IC40 values [19]: 0.24

O=[As]O [NaAsO2, sodium arsenite]
logarithmic value of ratio of IC40 values [1]: −0.20
logarithmic value of ratio of IC40 values [2]: 0.08
logarithmic value of ratio of IC40 values [3]: −0.07
logarithmic value of ratio of IC40 values [4, 20]: −0.10
logarithmic value of ratio of IC40 values [4, 21]: 0.34
logarithmic value of ratio of IC40 values [5]: 0.00
logarithmic value of ratio of IC40 values [6, 22]: −0.07
logarithmic value of ratio of IC40 values [6, 23]: 0.35
logarithmic value of ratio of IC40 values [7]: 0
logarithmic value of ratio of IC40 values [8]: 0.16
logarithmic value of ratio of IC40 values [9]: 0.21
logarithmic value of ratio of IC40 values [10]: −0.19
logarithmic value of ratio of IC40 values [11]: 0.16
logarithmic value of ratio of IC40 values [12]: 0.16
logarithmic value of ratio of IC40 values [13]: 0.14
logarithmic value of ratio of IC40 values [14]: 0.07
logarithmic value of ratio of IC40 values [15]: −0.02
logarithmic value of ratio of IC40 values [16]: 0.16
logarithmic value of ratio of IC40 values [17]: 0.02
logarithmic value of ratio of IC40 values [18]: −0.16
logarithmic value of ratio of IC40 values [19]: 0.00

C=C[C@@]1(C)CC(=O)[C@]2(O)[C@@]3(C)[C@@H](O)CCC(C)(C)[C@@H]3[C@H](O)[C@H](OC(C)=O)[C@@]2(C)O1 [Forskolin, forskolin]
logarithmic value of ratio of IC40 values [1]: −0.17
logarithmic value of ratio of IC40 values [2]: 0.36
logarithmic value of ratio of IC40 values [3]: −0.22
logarithmic value of ratio of IC40 values [4, 20]: 0.00
logarithmic value of ratio of IC40 values [4, 21]: −0.26
logarithmic value of ratio of IC40 values [5]: 0.00
logarithmic value of ratio of IC40 values [6, 22]: 0.00
logarithmic value of ratio of IC40 values [6, 23]: 0.00
logarithmic value of ratio of IC40 values [7]: −0.09
logarithmic value of ratio of IC40 values [8]: 0.51
logarithmic value of ratio of IC40 values [9]: 0.40
logarithmic value of ratio of IC40 values [10]: 0.54
logarithmic value of ratio of IC40 values [11]: 0.33
logarithmic value of ratio of IC40 values [12]: 0.08
logarithmic value of ratio of IC40 values [13]: 0.16
logarithmic value of ratio of IC40 values [14]: 0.51
logarithmic value of ratio of IC40 values [15]: −0.39
logarithmic value of ratio of IC40 values [16]: 0.70
logarithmic value of ratio of IC40 values [17]: 0.43
logarithmic value of ratio of IC40 values [18]: 0.25
logarithmic value of ratio of IC40 values [19]: 0.51
